Results on twelve molecules are retold here after patent US5371186A, “Synthetic peptides for detoxification of bacterial endotoxins and for the prevention and treatment of septic shock” (priority 1992, dated 1994).

Bridge positions count the residues as written; N and C are the ends. Ends that are not written are not given here. Peptide text beside a SMILES is read from it. * marks the point of attachment. Biotin = O=C1N[C@H]2[C@H](CS[C@H]2CCCCC(=O)*)N1

One data set concerns the target Avidin (Gallus gallus, UniProt P02701). Conditions: cited from earlier work.
A short description of data set [1]: prevention of endotoxin-induced death in CD1 mice sensitized with Actinomycin D. The data set is classed as in vivo, mice (Strain CD1). The conditions noted are these: 0.1 mg/mouse i.v., 1 μg endotoxin i.p.; for Mice surviving: 20 mice per group. As for the experimental part:
Prevention of endotoxin-induced death in mice, has been achieved by intravenous injection of the peptides of the invention. For this experiment, a strain of mice highly sensitive to the lethal activity of bacterial endotoxin has been used. Mice sensitized with Actinomycin D (Strain CD1) show a high sensitivity to extremely low doses of endotoxin. A dose as low as 1 μg of endotoxin per mouse (about 40 μg/kg of body weight) is able to completely kill a population of mice within 24-48 hours.
Groups of 20 mice CD1 have been treated intravenously with the peptides of the invention, with a single dose of 0.1 mg peptide, solubilized in sterile saline, per mouse. Thirty minutes later, mice were challenged by intraperitoneal injection of 1 μg of endotoxin purified from E. Coli strain 055-B5. Surviving mice were recorded every 24 hours during a seven days-period of observation. […] Negative controls received an intravenous injection of saline.
There were 20 mice per group. Mice surviving at each of the seven 24 hours observation periods are listed. The % survival appears in parenthesis. P expresses the level of statistical significance calculated by "t-Test" for each molecule compared to the treatment with saline, considering the total survival rate in each group.

Another data set relates to trypsin in human serum. The experiment in a line: stability towards proteolysis by trypsin in human serum. The data set is classed as in vitro ADME. As for the experimental part:
(§1) The effects of trypsin present in human serum on Polymyxin "B" and the peptides of invention was determined by combining 10 μl of human serum with 20 μg of the given peptide in 10 μl volume and holding the mixture at a temperature of 37° C. for different intervals of time. At various times, an aliquot of the mixture was processed by HPLC analysis in order to detect the residual amount of the investigated peptide. In Table VI the half-lives time of each peptide investigated are shown as compared to the half-life time of Polymyxin "B".

Another data set has as its system trypsin. Described as above. The data set is classed as in vitro ADME. The conditions noted are these: human serum, 37° C., 180 mins; read-out: AMOUNT RECOVERED % after 180 mins. On the procedure:
as §1

Chain of Avidin (P02701 25-152, species assumed): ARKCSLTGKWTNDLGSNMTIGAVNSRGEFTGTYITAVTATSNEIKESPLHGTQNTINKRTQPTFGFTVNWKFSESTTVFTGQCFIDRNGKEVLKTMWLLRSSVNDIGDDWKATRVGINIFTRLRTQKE

For the molecule `O=C(O)CCCC[C@@H]1SC[C@@H]2NC(=O)N[C@@H]21` [Biotin], the “K of the reaction with Avidin” value on Avidin is on record as 10^15.

Take `CN(C)CCCN1c2ccccc2Sc2ccc(Cl)cc21` [CPZ, Chlorpromazine]: the “% survival” value in data set [1] (24 hs), in data set [1] (48 hs), in data set [1] (72 hs), in data set [1] (96 hs), in data set [1] (120 hs) and in data set [1] (144 hs) was 50% throughout. The “% survival” value in data set [1] (168 hs) was 50%. The Mice surviving in data set [1] (24 hs), in data set [1] (48 hs), in data set [1] (72 hs), in data set [1] (96 hs), in data set [1] (120 hs) and in data set [1] (144 hs) was 10 each time. In data set [1] (168 hs), the Mice surviving was found to be 10.

For the molecule `CC(C)C[C@@H]1NC(=O)[C@H](Cc2ccccc2)NC(=O)[C@H](CCCCN)NC(=O)[C@@H](NC(=O)[C@H](CCCCN)NC(=O)[C@@H](NC(=O)[C@@H](N)CCCCN)[C@@H](C)O)CSSC[C@@H](C(=O)O)NC(=O)[C@H](CCCCN)NC(=O)[C@H](CCCCN)NC1=O` [Peptide II] (H-KTKCKFLKKC-OH; disulfide 4-10), the “Half-Life Time (t/2)” value with trypsin in human serum (human serum, 37° C.) amounted to 50 min. In addition, the remaining at 3 h, 1 mg/mL in the data set with trypsin was 10%.

Take `CC(C)C[C@@H]1NC(=O)[C@H](CCCCN)NC(=O)[C@H](CCCCN)NC(=O)[C@@H](N)CSSC[C@@H](C(=O)N[C@@H](CCCCN)C(=O)N[C@H](C(=O)N[C@@H](CCCCN)C(=O)O)[C@@H](C)O)NC(=O)[C@H](CCCCN)NC(=O)[C@H](Cc2ccccc2)NC1=O` [Peptide IV] (H-CKKLFKCKTK-OH; disulfide 1-7): the “Half-Life Time (t/2)” value in the data set on trypsin in human serum (human serum, 37° C.) stood at 18 min. Also, in the data set on trypsin, the remaining at 3 h, 1 mg/mL stood at 0%.

As to `CC(C)C[C@@H]1NC(=O)[C@H](Cc2ccccc2)NC(=O)[C@H](CCCCN)NC(=O)[C@@H](N)CSSC[C@@H](C(=O)O)NC(=O)[C@H](CCCCN)NC(=O)[C@H](CCCCN)NC1=O` [Peptide I] (H-CKFLKKC-OH; disulfide 1-7), in the data set on trypsin in human serum (human serum, 37° C.), the “Half-Life Time (t/2)” value is given as more than 180 min. For the same molecule, in the data set with trypsin, the remaining at 3 h, 1 mg/mL worked out at 70%.

As for `CC[C@H](C)[C@H](N)C(=O)N[C@@H](CCCCN)C(=O)N[C@H](C(=O)N[C@@H](CCCCN)C(=O)N[C@H]1CSSC[C@@H](C(=O)O)NC(=O)[C@H](CCCCN)NC(=O)[C@H](CCCCN)NC(=O)[C@H](CC(C)C)NC(=O)[C@H](Cc2ccccc2)NC(=O)[C@H](CCCCN)NC1=O)[C@@H](C)O` [Peptide VI] (H-IKTKCKFLKKC-OH; disulfide 5-11), the “Half-Life Time (t/2)” value with trypsin in human serum (human serum, 37° C.) is reported as 1,080 min. Further, in the data set on trypsin, the remaining at 3 h, 1 mg/mL was 76%.

As to `CC(C)C[C@@H]1NC(=O)[C@H](CCCCN)NC(=O)[C@H](CCCCN)NC(=O)[C@@H](N)CSSC[C@@H](C(=O)N[C@@H](CCCCN)C(=O)N[C@H](C(=O)O)[C@@H](C)O)NC(=O)[C@H](CCCCN)NC(=O)[C@H](Cc2ccccc2)NC1=O` [Peptide V] (H-CKKLFKCKT-OH; disulfide 1-7), the “Half-Life Time (t/2)” value in the data set with trypsin in human serum (human serum, 37° C.) is on record as 240 min. The remaining at 3 h, 1 mg/mL in the data set with trypsin came to 55%.

`CC[C@H](C)[C@H](NC(=O)CCCC[C@@H]1SC[C@@H]2NC(=O)N[C@@H]21)C(=O)N[C@@H](CCCCN)C(=O)N[C@H](C(=O)N[C@@H](CCCCN)C(=O)N[C@H]1CSSC[C@@H](C(=O)O)NC(=O)[C@H](CCCCN)NC(=O)[C@H](CCCCN)NC(=O)[C@H](CC(C)C)NC(=O)[C@H](Cc2ccccc2)NC(=O)[C@H](CCCCN)NC1=O)[C@@H](C)O` [labeled Peptide VI] (Biotin-IKTKCKFLKKC-OH; disulfide 5-11): in the data set with trypsin in human serum (human serum or human whole blood, not significantly different from the unlabeled value), the “Half-Life Time (t/2)” value is approximately 1200 min.

As to IKFLKFLKFLK [Peptide VIII], the “Half-Life Time (t/2)” value in the data set on trypsin in human serum (human serum, 37° C.) came out at 7 min. In addition, the remaining at 3 h, 1 mg/mL with trypsin came to 0%.

Take IKTKKFLKKT [Peptide VII]: in the data set with trypsin in human serum (human serum, 37° C.), the “Half-Life Time (t/2)” value is recorded as 50 min. Also, in the data set with trypsin, the remaining at 3 h, 1 mg/mL stood at 28%.

On to KFLKFLK [Peptide IX], for which, in the data set on trypsin in human serum (human serum, 37° C.), the “Half-Life Time (t/2)” value is given as 10 min. Also, the remaining at 3 h, 1 mg/mL with trypsin was found to be 0%.

As for RYVRYVRYV [Peptide X], in the data set on trypsin in human serum (human serum, 37° C.), the “Half-Life Time (t/2)” value is given as 35 min. Also, in the data set with trypsin, the remaining at 3 h, 1 mg/mL stood at 0%.
